Reference: patent US9204653B2, “5-fluoro pyrimidine derivatives” (DOW AGROSCIENCES LLC, priority 2008, dated 2015)
Like-named read-outs stand apart in the source and are kept apart here.

Test system: Mycosphaerella graminicola; Anamorph: Septoria tritici; Bayer Code SEPTTR
Assay: Leaf blotch of wheat, foliar fungicide treatment, one day protectant (1DP) or three day curative (3DC)
Assay type: in vivo, Septoria tritici on wheat plants (variety Yuma)
Conditions: Zymoseptoria tritici; for pest or weed control at 50 ppm / pest or weed control at 200 ppm: % disease control rating
[1] = 24 h, one day protectant (1DP), 25 ppm (first 1DP column), percent control rating, read-out: SETTTR 1DP 25 ppm
[2] = 24 h, one day protectant (1DP), 25 ppm as printed (second 1DP column), percent control rating, read-out: SETTTR 1DP 25 ppm
[3] = 72 h, three day curative (3DC), 25 ppm, percent control rating, read-out: SEPTTR 3DC 25 ppm
[4] = 72 h, three day curative (3DC), percent control rating, read-out: SEPTTR 3DC 100 ppm
[5] = 24 h, one day protectant (1DP), 25 ppm, percent disease control rating, read-out: SETTTR 1DP 25 ppm
[6] = 24 h, one day protectant (1DP), percent disease control rating, read-out: SEPTTR 1DP 100 ppm
[7] = 72 h, three day curative (3DC), 25 ppm, percent disease control rating, read-out: SEPTTR 3DC 25 ppm
[8] = 72 h, three day curative (3DC), percent disease control rating, read-out: SEPTTR 3DC 100 ppm
[9] = 24 h, one day protectant (1DP), 25 ppm, rating of percent disease control, read-out: SETTTR 1DP 25 ppm
[10] = 24 h, one day protectant (1DP), rating of percent disease control, read-out: SEPTTR 1DP 100 ppm
[11] = 24 h, one day protectant, 25 ppm, rating of percent disease control, read-out: SETTTR 1DP 25 ppm
[12] = 24 h, one day protectant, rating of percent disease control, read-out: SEPTTR 1DP 100 ppm
[13] = 72 h, three day curative, 25 ppm, rating of percent disease control, read-out: SEPTTR 3DC 25 ppm
[14] = 72 h, three day curative, rating of percent disease control, read-out: SEPTTR 3DC 100 ppm
[15] = 72 h, three day curative (3DC), 25 ppm, rating of percent disease control, read-out: SEPTTR 3DC 25 ppm
[16] = 72 h, three day curative (3DC), rating of percent disease control, read-out: SEPTTR 3DC 100 ppm

C=CCOc1ncc(F)c(N/N=C/C2CC2)n1 [Compound 1062]
pest or weed control at 25 ppm [1]: 0 to 25%
pest or weed control at 25 ppm [2]: 0 to 25%
pest or weed control at 25 ppm [3]: 0 to 25%
pest or weed control at 100 ppm [4]: 0 to 25%

O=S(=O)(Nc1nc(OCc2ccc(F)cc2)ncc1F)c1ccccc1 [Compound 1005]
pest or weed control at 25 ppm [1]: 0 to 25%
pest or weed control at 25 ppm [2]: 0 to 25%
pest or weed control at 25 ppm [3]: 0 to 25%
pest or weed control at 100 ppm [4]: 0 to 25%

N#Cc1cccc(COc2ncc(F)c(NCOCc3ccccc3)n2)c1 [Compound 167]
pest or weed control at 25 ppm [5]: 0 to 25%
pest or weed control at 100 ppm [6]: 26 to 50%
pest or weed control at 25 ppm [7]: 0 to 25%
pest or weed control at 100 ppm [8]: 0 to 25%

COc1cccc(COc2ncc(F)c(NNc3cc(C)nc(C)n3)n2)c1 [Compound 1032]
pest or weed control at 25 ppm [1]: 26 to 50%
pest or weed control at 25 ppm [2]: 26 to 50%
pest or weed control at 25 ppm [3]: 0 to 25%
pest or weed control at 100 ppm [4]: 0 to 25%

Cc1cc(Cl)ccc1Oc1ncc(F)c(N)n1 [Compound 246]
pest or weed control at 25 ppm [9]: 0 to 25%
pest or weed control at 100 ppm [10]: 0 to 25%

Cc1cc(C)cc(COc2ncc(F)c(N)n2)c1 [Compound 564]
pest or weed control at 25 ppm [11]: 51 to 75%
pest or weed control at 100 ppm [12]: 76 to 100%
pest or weed control at 25 ppm [13]: 26 to 50%
pest or weed control at 100 ppm [14]: 76 to 100%

COc1cc(COc2ncc(F)c(N)n2)cc(OC)c1 [Compound 623]
pest or weed control at 25 ppm [11]: 76 to 100%
pest or weed control at 100 ppm [12]: 76 to 100%
pest or weed control at 25 ppm [13]: 51 to 75%
pest or weed control at 100 ppm [14]: 76 to 100%

Nc1nc(OS(=O)(=O)c2ccc(Cl)cc2)ncc1F [Compound 611]
pest or weed control at 25 ppm [11]: 76 to 100%
pest or weed control at 100 ppm [12]: 76 to 100%
pest or weed control at 25 ppm [13]: 76 to 100%
pest or weed control at 100 ppm [14]: 76 to 100%

C=CCOc1ncc(F)c(NNC(=O)c2cccc(C)c2)n1 [Compound 959, N′-(2-(allyloxy)-5-fluoropyrimidin-4-yl)-3-methylbenzohydrazide]
pest or weed control at 25 ppm [1]: 0 to 25%
pest or weed control at 25 ppm [2]: 0 to 25%
pest or weed control at 25 ppm [3]: 0 to 25%
pest or weed control at 100 ppm [4]: 0 to 25%

Nc1nc(ON=C(c2ccccc2)c2ccccc2)ncc1F [Compound 312]
pest or weed control at 25 ppm [9]: 76 to 100%
pest or weed control at 100 ppm [10]: 76 to 100%
pest or weed control at 25 ppm [15]: 76 to 100%
pest or weed control at 100 ppm [16]: 76 to 100%

CC(C)(C)NNc1nc(O)ncc1F [Compound 1092]
pest or weed control at 25 ppm [1]: 0 to 25%
pest or weed control at 25 ppm [2]: 26 to 50%
pest or weed control at 25 ppm [3]: 0 to 25%
pest or weed control at 100 ppm [4]: 26 to 50%

N#CNc1nc(OCc2ccc(F)cc2)ncc1F [Compound 451]
pest or weed control at 25 ppm [9]: 0 to 25%
pest or weed control at 100 ppm [10]: 0 to 25%
pest or weed control at 25 ppm [15]: 0 to 25%
pest or weed control at 100 ppm [16]: 0 to 25%

CN(C)/C=N/c1nc(OC(=O)c2ccccc2F)ncc1F [Compound 58]
pest or weed control at 25 ppm [5]: 76 to 100%
pest or weed control at 100 ppm [6]: 76 to 100%
pest or weed control at 25 ppm [7]: 76 to 100%
pest or weed control at 100 ppm [8]: 76 to 100%

CN1CCCC/C1=N\c1nc(OCc2ccn(C)n2)ncc1F [Compound 751]
pest or weed control at 25 ppm [9]: 51 to 75%
pest or weed control at 100 ppm [10]: 76 to 100%
pest or weed control at 25 ppm [15]: 26 to 50%
pest or weed control at 100 ppm [16]: 76 to 100%

Nc1nc(OCC2CC2)ncc1F [Compound 722]
pest or weed control at 25 ppm [11]: 0 to 25%
pest or weed control at 100 ppm [12]: 0 to 25%
pest or weed control at 25 ppm [13]: 0 to 25%
pest or weed control at 100 ppm [14]: 26 to 50%

Cc1cccc(COc2ncc(F)c(N)n2)n1 [Compound 78]
pest or weed control at 25 ppm [5]: 76 to 100%
pest or weed control at 100 ppm [6]: 76 to 100%
pest or weed control at 25 ppm [7]: 76 to 100%
pest or weed control at 100 ppm [8]: 76 to 100%

CC(Oc1ncc(F)c(NSc2ccccc2[N+](=O)[O-])n1)c1ccc(F)cc1 (stereo not shown) [Compound 126]
pest or weed control at 25 ppm [5]: 76 to 100%
pest or weed control at 100 ppm [6]: 76 to 100%
pest or weed control at 25 ppm [7]: 76 to 100%
pest or weed control at 100 ppm [8]: 76 to 100%

COc1ccc(OC)c(COc2ncc(F)c(NSc3ccccc3[N+](=O)[O-])n2)c1 [Compound 680]
pest or weed control at 25 ppm [11]: 0 to 25%
pest or weed control at 100 ppm [12]: 0 to 25%
pest or weed control at 25 ppm [13]: 26 to 50%
pest or weed control at 100 ppm [14]: 26 to 50%

COc1cccc(COc2ncc(F)c(NOCc3ccccc3)n2)c1 [Compound 594]
pest or weed control at 25 ppm [11]: 0 to 25%
pest or weed control at 100 ppm [12]: 51 to 75%
pest or weed control at 25 ppm [13]: 0 to 25%
pest or weed control at 100 ppm [14]: 26 to 50%

Cc1ccc(CNc2nc(OC3CCCCC3)ncc2F)cc1 [Compound 875]
pest or weed control at 50 ppm (24 h, one day protectant): 0 to 25%
pest or weed control at 200 ppm (24 h, one day protectant): 76 to 100%

COc1ncc(F)c(N(O)Cc2ccccc2)n1 [Compound 1080]
pest or weed control at 25 ppm [1]: 0 to 25%
pest or weed control at 25 ppm [2]: 0 to 25%
pest or weed control at 25 ppm [3]: 26 to 50%
pest or weed control at 100 ppm [4]: 26 to 50%

C=CCOc1ncc(F)c(NCc2ccccc2F)n1 [Compound 917]
pest or weed control at 50 ppm (24 h, one day protectant): 0 to 25%
pest or weed control at 200 ppm (24 h, one day protectant): 51 to 75%

C=CCOc1ncc(F)c(NNC(=O)C=C(C)C)n1 [Compound 1123]
pest or weed control at 25 ppm [1]: 0 to 25%
pest or weed control at 25 ppm [2]: 0 to 25%
pest or weed control at 25 ppm [3]: 0 to 25%
pest or weed control at 100 ppm [4]: 0 to 25%

Nc1nc(Oc2cccc([N+](=O)[O-])c2)ncc1F [Compound 715]
pest or weed control at 25 ppm [11]: 26 to 50%
pest or weed control at 100 ppm [12]: 51 to 75%
pest or weed control at 25 ppm [13]: 0 to 25%
pest or weed control at 100 ppm [14]: 0 to 25%

COCCOC(=O)Nc1nc(OCc2cccc(OC)c2)ncc1F [Compound 459]
pest or weed control at 25 ppm [9]: 51 to 75%
pest or weed control at 100 ppm [10]: 76 to 100%
pest or weed control at 25 ppm [15]: 76 to 100%
pest or weed control at 100 ppm [16]: 76 to 100%

Oc1ncc(F)c(N/N=C/c2ccccc2Cl)n1 [Compound 322]
pest or weed control at 25 ppm [9]: 0 to 25%
pest or weed control at 100 ppm [10]: 0 to 25%
pest or weed control at 25 ppm [15]: 0 to 25%
pest or weed control at 100 ppm [16]: 0 to 25%

Fc1cnc(OC2CCCCC2)nc1NCc1ccc(Cl)cc1 [Compound 903]
pest or weed control at 50 ppm (24 h, one day protectant): 0 to 25%
pest or weed control at 200 ppm (24 h, one day protectant): 76 to 100%

Cc1cc(C)cc(COc2ncc(F)c(NSc3ccccc3[N+](=O)[O-])n2)c1 [Compound 440]
pest or weed control at 25 ppm [9]: 0 to 25%
pest or weed control at 100 ppm [10]: 0 to 25%
pest or weed control at 25 ppm [15]: 26 to 50%
pest or weed control at 100 ppm [16]: 0 to 25%

Nc1cccc(COc2ncc(F)c(N)n2)c1 [Compound 430]
pest or weed control at 25 ppm [9]: 76 to 100%
pest or weed control at 100 ppm [10]: 76 to 100%
pest or weed control at 25 ppm [15]: 76 to 100%
pest or weed control at 100 ppm [16]: 76 to 100%

CC(C)(C)OC(=O)NNc1nc(OCc2ccccc2)ncc1F [Compound 765]
pest or weed control at 25 ppm [9]: 0 to 25%
pest or weed control at 100 ppm [10]: 26 to 50%
pest or weed control at 25 ppm [15]: 0 to 25%
pest or weed control at 100 ppm [16]: 0 to 25%

CCC(C)C(=O)Oc1ncc(F)c(/N=C/N(C)C)n1 (stereo not shown) [Compound 94]
pest or weed control at 25 ppm [5]: 76 to 100%
pest or weed control at 100 ppm [6]: 76 to 100%
pest or weed control at 25 ppm [7]: 76 to 100%
pest or weed control at 100 ppm [8]: 76 to 100%

O=C(Nc1nc(O)ncc1F)c1ccsc1 [Compound 979]
pest or weed control at 25 ppm [1]: 0 to 25%
pest or weed control at 25 ppm [2]: 26 to 50%
pest or weed control at 25 ppm [3]: 0 to 25%
pest or weed control at 100 ppm [4]: 51 to 75%

Cc1cnc(CNc2nc(OCc3ccc(F)cc3)ncc2F)cn1 [Compound 900]
pest or weed control at 50 ppm (24 h, one day protectant): 51 to 75%
pest or weed control at 200 ppm (24 h, one day protectant): 76 to 100%

CN(C)/C=N/c1nc(OCc2cccc(N)c2)ncc1F [Compound 303]
pest or weed control at 25 ppm [9]: 26 to 50%
pest or weed control at 100 ppm [10]: 76 to 100%
pest or weed control at 25 ppm [15]: 51 to 75%
pest or weed control at 100 ppm [16]: 76 to 100%

O=S(=O)(Nc1nc(O)ncc1F)C1CC1 [Compound 1104]
pest or weed control at 25 ppm [1]: 0 to 25%
pest or weed control at 25 ppm [2]: 0 to 25%
pest or weed control at 25 ppm [3]: 0 to 25%
pest or weed control at 100 ppm [4]: 0 to 25%
